Data published in PMC6522510 (Nature Communications, 2019).

What was measured:
Parameters in all cases: species or system AML cell lines (8); Primary HTS, single concentration about 10 uM, Cell Titer Glo viability; log10 luminescence, per cent inhibition relative to cycloheximide control
Conditions in all cases: 72 h, relative to cycloheximide control, log10 luminescence; inhibitor
CHRF288-11 = test system: CHRF288-11
ML-2 = test system: ML-2
U937 = test system: U937
CMS = test system: CMS
MV4-11 = test system: MV4-11
CMK = test system: CMK
MOLM-13 = test system: MOLM-13
M07e = test system: M07e

Structure (SMILES)	CHRF288-11 %inh (CHRF288-11)	ML-2 %inh (ML-2)	U937 %inh (U937)	CMS %inh (CMS)	MV4-11 %inh (MV4-11)	CMK %inh (CMK)	MOLM-13 %inh (MOLM-13)	M07e %inh (M07e)
COc1ccccc1CN=C1NC(=O)/C(=C/c2ccc3ncccc3c2)S1 [SJ000581141-1]	-2.393%	2.098%	8.458%	6.446%	3.855%	34.72%	11.11%	13.46%
COc1ccccc1C(=O)c1cnc(NC2CCN(S(C)(=O)=O)CC2)nc1N [SJ000581142-1]	2.52%	3.568%	8.409%	7.4%	2.743%	37.79%	12.27%	6.858%
CN[C@H](C#Cc1c(F)ccc2c1/C(=C/c1[nH]ccc1OC)C(=O)N2)CO [SJ000581143-1]	59.49%	61.18%	84.86%	103.6%	81.33%	110.7%	108.7%	77.31%
COc1cccc(C2=C(c3c(C)n(C)c4ccccc34)C(=O)NC2=O)c1 [SJ000581144-1]	0.2394%	-0.7501%	1.12%	-0.561%	0.7267%	1.238%	3.467%	8.342%
CC(C)Nc1ncc2cc(Oc3ccc(F)cc3F)c(=O)n(C)c2n1 [SJ000581145-1]	-0.5311%	0.005285%	2.438%	3.456%	3.959%	7.64%	2.517%	6.769%
COc1cccc(C2=C(c3cn(C)c4ccc(Cl)cc34)C(=O)NC2=O)c1 [SJ000581146-1]	-4.42%	-1.297%	1.209%	4.874%	2.685%	-1.255%	1.622%	8.183%
O=C1NC(=NCCc2ccccn2)S/C1=C\c1ccc2ncccc2c1 [SJ000581148-1]	5.232%	2.217%	2.939%	10.48%	45.12%	25.57%	58.53%	10.8%
COc1cccc(C2=C(c3cn(C)c4cc(F)ccc34)C(=O)NC2=O)c1 [SJ000581149-1]	1.293%	-0.5942%	0.6707%	6.064%	0.4897%	-0.7568%	1.739%	3.649%
Nc1c(C(=O)c2cccc(C(O)(CO)CO)c2)cnn1-c1ccc(F)cc1 [SJ000581150-1]	-1.927%	-0.9818%	-0.03378%	0.8259%	2.176%	-0.6841%	1.373%	0.2609%
CCn1c(=O)c(Oc2ccc(F)cc2F)cc2cnc(NC3CCOCC3)nc21 [SJ000581151-1]	-1.135%	-1.057%	0.6844%	-2.221%	2.556%	8.128%	2.299%	11.45%
Cc1ccc(C)c(C2=C(c3cn(C)c4ccccc34)C(=O)NC2=O)c1 [SJ000581152-1]	30.38%	0.7091%	4.715%	-1.704%	2.862%	4.497%	2.3%	-1.997%
O=C1NC(=NCc2ccccc2Br)S/C1=C\c1ccc2ncccc2c1 [SJ000581153-1]	2.479%	3.418%	5.903%	1.226%	3.118%	1.742%	2.882%	7.782%
Cn1cc(C2=C(c3cn(C)c4cc(N)ccc34)C(=O)NC2=O)c2ccccc21 [SJ000581154-1]	40.91%	25.1%	39.79%	49.07%	66.53%	105.6%	77.98%	38.42%
CCc1c(C)nc2sc3c(N)ncnc3c2c1C [SJ000581155-1]	5.014%	1.162%	2.164%	6.427%	0.965%	26.14%	58.52%	3.066%
Nc1c(C(=O)c2cccc(-c3ccc[n+]([O-])c3)c2)cnn1-c1ccc(F)cc1F [SJ000581156-1]	0.7431%	2.597%	3.963%	-0.9836%	2.306%	6.727%	3.379%	5.956%
CC(CO)Nc1cc(-c2[nH]c3cccnc3c2-c2ccc(F)cc2)ccn1 (centres unmarked) [SJ000581157-1]	7.035%	3.05%	3.658%	7.57%	5.71%	13.38%	1.967%	3.935%
COc1cc[nH]c1/C=C1\C(=O)Nc2ccc(F)c(C#C[C@@H](O)[C@@H](N)[C@@H](C)O)c21 [SJ000581159-1]	61.95%	60.99%	83.42%	97.96%	92.6%	112.6%	95.78%	87.08%
Cn1cc(C2=C(c3ccc(N)cc3)C(=O)NC2=O)c2ccccc21 [SJ000581160-1]	1.792%	2.229%	1.651%	6.332%	3.731%	8.525%	6.461%	7.926%
Cc1ccccc1C1=C(c2cn(C)c3ccccc23)C(=O)NC1=O [SJ000581162-1]	8.356%	3.854%	0.403%	6.978%	6.408%	3.937%	0.3788%	5.581%
Cn1c(=O)c(-c2ccccc2Cl)cc2cnc(NC3CCOCC3)nc21 [SJ000581163-1]	6.112%	1.667%	4.292%	7.391%	5.265%	15.25%	7.929%	8.813%
COc1cc(F)c(F)c(F)c1C(=O)c1cnc(NC2CCN(S(C)(=O)=O)CC2)nc1N [SJ000581164-1]	47.57%	21.95%	40.5%	23.31%	22.69%	59.95%	83.36%	35.86%
Cn1cc(C2=C(c3cn(CCCCCN)c4ccccc34)C(=O)NC2=O)c2ccccc21 [SJ000581165-1]	2.441%	1.663%	0.4783%	0.9818%	1.637%	0.6124%	2.139%	4.895%
O=C1OC(=O)C(c2c[nH]c3ccccc23)=C1c1c[nH]c2ccccc12 [SJ000581166-1]	5.422%	2.957%	1.32%	5.505%	1.035%	0.5161%	3.376%	-1.376%
NC1=NC(=O)/C(=C/c2ccc3ncccc3c2)S1 [SJ000581167-1]	7.843%	6.393%	10.35%	1.297%	20.86%	14.91%	12.5%	-0.544%
COc1ccc(N2Cc3cnc(Nc4ccccc4)nc3N([C@@H]3CC[C@@H](O)C3)C2=O)cc1 [SJ000581169-1]	84.91%	3.259%	3.756%	-0.5577%	9.017%	31.32%	15.09%	3.499%
